In ChEMBL document CHEMBL4699507, “Rhopaladins' analogue (E)-2-aroyl-4-(4-fluorobenzylidene)-5-oxopyrrolidines inhibit proliferation, promote apoptosis and down-regulation of E6/E7 mRNA in cervical cancer” (2020):

What was measured:
Ca-Ski [1] = experiment: Induction of apoptosis in human CaSki cells assessed as early apoptotic cells at 12.5 uM after 48 hrs by Annexin V-FITC/PI double staining based flow cytometric analysis (Rvb =0.697%); type: functional
Ca-Ski [2] = experiment: Induction of apoptosis in human CaSki cells assessed as early apoptotic cells at 50 uM after 48 hrs by Annexin V-FITC/PI double staining based flow cytometric analysis (Rvb =0.697%); type: functional
Ca-Ski [3] = experiment: Induction of apoptosis in human CaSki cells at 25 uM after 48 hrs by Annexin V-FITC/PI double staining based flow cytometric analysis (reference value: 6.25 +/-0.5%); type: functional
Ca-Ski [4] = experiment: Induction of apoptosis in human CaSki cells at 12.5 uM after 48 hrs by Annexin V-FITC/PI double staining based flow cytometric analysis (reference value: 6.25 +/-0.5%); type: functional
Ca-Ski [5] = experiment: Antiproliferative activity against human CaSki cells assessed as reduction in cell viability at 3.125-100 uM by MTT assay; type: functional, cell-based; conditions: dose microM 3.125-100, time hrs 24-72, TDE = time-dependent effect
Ca-Ski [6] = experiment: Induction of apoptosis in human CaSki cells assessed as late apoptotic cells at 50 uM after 48 hrs by Annexin V-FITC/PI double staining based flow cytometric analysis (Rvb =5.59%); type: functional
Ca-Ski [7] = experiment: Induction of apoptosis in human CaSki cells assessed as viable cells at 12.5 uM after 48 hrs by Annexin V-FITC/PI double staining based flow cytometric analysis (reference value: 93%); type: functional; conditions: read-out: Activity
[8] = Inhibition of Human papillomavirus type 16 derived E7 gene expression in human CaSki cells assessed as fold change in expression at 12.5 uM measured after 48 hrs by RT-qPCR analysis relative to control; type: functional, Ca-Ski
Ca-Ski [9] = experiment: Antiproliferative activity against human CaSki cells assessed as inhibition of cell viability incubated for 48 hrs by MTT assay; type: functional, cell-based; conditions: dose microM 3.125-100, time 48.0 hrs
Ca-Ski [10] = experiment: Induction of apoptosis in human CaSki cells assessed as late apoptotic cells at 12.5 uM after 48 hrs by Annexin V-FITC/PI double staining based flow cytometric analysis (Rvb =5.59%); type: functional
[11] = Inhibition of Human papillomavirus type 16 derived E7 gene expression in human CaSki cells assessed as fold change in expression at 25 uM measured after 48 hrs by RT-qPCR analysis relative to control; type: functional, Ca-Ski
[12] = Inhibition of Human papillomavirus type 16 derived E6 gene expression in human CaSki cells assessed as fold change in expression at 12.5 uM measured after 48 hrs by RT-qPCR analysis relative to control; type: functional, Ca-Ski
Ca-Ski [13] = experiment: Induction of apoptosis in human CaSki cells assessed as viable cells at 50 uM after 48 hrs by Annexin V-FITC/PI double staining based flow cytometric analysis (reference value: 93%); type: functional; conditions: read-out: Activity
[14] = Inhibition of Human papillomavirus type 16 derived E6 gene expression in human CaSki cells assessed as fold change in expression at 25 uM measured after 48 hrs by RT-qPCR analysis relative to control; type: functional, Ca-Ski
Ca-Ski [15] = experiment: Induction of apoptosis in human CaSki cells assessed as necrotic cells at 50 uM after 48 hrs by Annexin V-FITC/PI double staining based flow cytometric analysis (Rvb =0.075%); type: functional
Ca-Ski [16] = experiment: Induction of apoptosis in human CaSki cells assessed as late apoptotic cells at 25 uM after 48 hrs by Annexin V-FITC/PI double staining based flow cytometric analysis (Rvb =5.59%); type: functional
Ca-Ski [17] = experiment: Induction of apoptosis in human CaSki cells assessed as early apoptotic cells at 25 uM after 48 hrs by Annexin V-FITC/PI double staining based flow cytometric analysis (Rvb =0.697%); type: functional
Ca-Ski [18] = experiment: Induction of apoptosis in human CaSki cells assessed as necrotic cells at 12.5 uM after 48 hrs by Annexin V-FITC/PI double staining based flow cytometric analysis (Rvb =0.075%); type: functional
Ca-Ski [19] = experiment: Induction of apoptosis in human CaSki cells after 48 hrs by Annexin V-FITC/PI double staining based flow cytometric analysis; type: functional, cell-based; conditions: dose microM 12.5-50, time 48.0 hrs
Ca-Ski [20] = experiment: Induction of apoptosis in human CaSki cells at 50 uM after 48 hrs by Annexin V-FITC/PI double staining based flow cytometric analysis (reference value: 6.25 +/-0.5%); type: functional
Ca-Ski [21] = experiment: Induction of apoptosis in human CaSki cells assessed as necrotic cells at 25 uM after 48 hrs by Annexin V-FITC/PI double staining based flow cytometric analysis (Rvb =0.075%); type: functional
Ca-Ski [22] = experiment: Induction of apoptosis in human CaSki cells assessed as viable cells at 25 uM after 48 hrs by Annexin V-FITC/PI double staining based flow cytometric analysis (reference value: 93%); type: functional; conditions: read-out: Activity
[23] = Inhibition of Human papillomavirus type 16 derived E7 gene expression in human CaSki cells assessed as fold change in expression at 50 uM measured after 48 hrs by RT-qPCR analysis relative to control; type: functional, Ca-Ski
[24] = Inhibition of Human papillomavirus type 16 derived E6 gene expression in human CaSki cells assessed as fold change in expression at 50 uM measured after 48 hrs by RT-qPCR analysis relative to control; type: functional, Ca-Ski

Compound: CC(C)N1C(=O)/C(=C/c2ccc(F)cc2)CC1(C(=O)NC(C)(C)C)C(=O)c1ccc(Cl)cc1 (stereo unspecified)
- Activity (Ca-Ski [1]): 8.2%
- Activity (Ca-Ski [2]): 26.2%
- Activity (Ca-Ski [3]): 23.56%
- Activity (Ca-Ski [4]): 15.6%
- Activity (Ca-Ski [5]): Tde
- Activity (Ca-Ski [6]): 15%
- viability at 12.5 µM (Ca-Ski [7]): 85.4%
- fold change (FC) [8]: 0.483
- Activity (Ca-Ski [9]): Dose-dependent effect
- Activity (Ca-Ski [10]): 6.24%
- fold change (FC) [11]: 0.465
- fold change (FC) [12]: 0.653
- viability at 50 µM (Ca-Ski [13]): 58.5%
- fold change (FC) [14]: 0.547
- Activity (Ca-Ski [15]): 0.217%
- Activity (Ca-Ski [16]): 9.65%
- Activity (Ca-Ski [17]): 14.9%
- Activity (Ca-Ski [18]): 0.18%
- Activity (Ca-Ski [19]): Dose-dependent effect
- Activity (Ca-Ski [20]): 41.2%
- Activity (Ca-Ski [21]): 0.105%
- viability at 25 µM (Ca-Ski [22]): 75.3%
- fold change (FC) [23]: 0.432
- fold change (FC) [24]: 0.354

Compound: CCCCN1C(=O)/C(=C/c2ccc(F)cc2)CC1(C(=O)NC(C)(C)C)C(=O)c1ccc(Cl)cc1 (stereo unspecified)
- Activity (Ca-Ski [9]): Dose-dependent effect

Compound: CC(C)N1C(=O)/C(=C/c2ccc(F)cc2)CC1(C(=O)NC(C)(C)C)C(=O)c1ccc(Br)cc1 (stereo unspecified)
- Activity (Ca-Ski [9]): Dose-dependent effect
